Assay results taken from patent US11325938B2, “CD73 inhibitors” (ORIC Pharmaceuticals, Inc., priority 2018, dated 2022).
pIC50: −log10 of the molar value.

Target: CD73 (Homo sapiens (Human), UniProt P21589)
Assay: Biochemical assay: inhibition of CD73 activity (AMP hydrolysis, Malachite Green readout)
Conditions: CD73 0.3208 nM, AMP 15 μM, 25 mM Tris-HCl pH 7.4, RT, absorbance 620 nm
Experimental: Example A1: Biochemical Assay
Assay Reaction Conditions
• Assay Volume: 70 μl • Reaction Volume: 50 μl • CD73: 0.3208 nM • AMP: 15 μM • Assay Buffer: 25 mM Tris-HCL, pH 7.4, 0.01% Brij-35, 0.01% BSA, 5 mM MgCl2 Assay Procedure:
Made dose titration of testing compounds in assay buffer, 10 points ½ log titrations in duplicates starting at 100 μM.
Added 25 μl of CD73 to each well for a final concentration of 320 pM.
Incubated at RT for 15 min.
Added 25 μl of AMP to each well for a final concentration of 15 μM.
Incubated at RT for 10 min.
Added 10 μl of Malachite Green Reagent A, incubate at RT for 10 min.
Added 10 of Malachite Green Reagent B, incubate at RT for 45 min.
Read the Absorbance on Envision plate reader using excitation filter: Cy5 […].
The ability of the compounds disclosed herein to inhibit CD73 activity was quantified and the respective IC50 values were determined. Table 2 provides the biochemical IC50 values of compounds disclosed herein.

Sequence of CD73 (P21589 27-574): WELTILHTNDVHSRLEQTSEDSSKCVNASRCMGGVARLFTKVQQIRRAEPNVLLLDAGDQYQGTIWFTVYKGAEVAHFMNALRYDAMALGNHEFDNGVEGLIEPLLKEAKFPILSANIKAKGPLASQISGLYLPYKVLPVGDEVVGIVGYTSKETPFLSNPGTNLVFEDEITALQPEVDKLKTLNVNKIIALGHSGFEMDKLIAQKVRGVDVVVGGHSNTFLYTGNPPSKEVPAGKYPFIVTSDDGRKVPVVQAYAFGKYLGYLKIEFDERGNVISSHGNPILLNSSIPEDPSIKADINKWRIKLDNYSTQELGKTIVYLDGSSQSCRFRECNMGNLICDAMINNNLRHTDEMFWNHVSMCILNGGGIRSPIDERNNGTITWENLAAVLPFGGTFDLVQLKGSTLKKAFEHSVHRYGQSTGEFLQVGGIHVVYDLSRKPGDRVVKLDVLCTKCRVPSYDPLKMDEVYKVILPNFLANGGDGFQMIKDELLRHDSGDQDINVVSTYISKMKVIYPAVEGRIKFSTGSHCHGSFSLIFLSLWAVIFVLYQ

pIC50, ≥ 7.00:
C[C@](Cc1nn[nH]n1)(OC[C@H]1O[C@@H](n2ncc3c(NC4CCCC4)nc(Cl)nc32)[C@H](O)[C@@H]1O)P(=O)(O)O [Example 120, ((S)-2-(((2R,3S,4R,5R)-5-(6-chloro-4-(cyclopentylamino)-1H-pyrazolo[3,4-d]pyrimidin-1-yl)-3,4-dihydroxytetrahydrofuran-2-yl)methoxy)-1-(2H-tetrazol-5-yl)propan-2-yl)phosphonic acid]
C[C@@H](Nc1nc(Cl)nc2c1cnn2[C@@H]1O[C@H](COC(CO)(CO)P(=O)(O)O)[C@@H](O)[C@H]1O)c1ccc(F)cc1 (racemic) [Example 222, rac-(2-(((2R,3S,4R,5R)-5-(6-chloro-4-(((R)-1-(4-fluorophenyl)ethyl)amino)-1H-pyrazolo[3,4-d]pyrimidin-1-yl)-3,4-dihydroxytetrahydrofuran-2-yl)methoxy)-1,3-dihydroxypropan-2-yl)phosphonic acid]
O=P(O)(O)C(CO)(COCCO)OC[C@H]1O[C@@H](n2ncc3c(NC4CCCC4)nc(Cl)nc32)[C@H](O)[C@@H]1O (mixture of isomers) [Example 172, rac-(2-(((2R,3S,4R,5R)-5-(6-chloro-4-(cyclopentylamino)-1H-pyrazolo[3,4-d]pyrimidin-1-yl)-3,4-dihydroxytetrahydrofuran-2-yl)methoxy)-1-hydroxy-3-(2-hydroxyethoxy)propan-2-yl)phosphonic acid]
COCC(C)(OC[C@H]1O[C@@H](n2cnc3c(NC4CCCC4)nc(Cl)nc32)[C@H](O)[C@@H]1O)P(=O)(O)O (stereo partly drawn) [Example 158, (2-(((2R,3S,4R,5R)-5-(2-chloro-6-(cyclopentylamino)-9H-purin-9-yl)-3,4-dihydroxytetrahydrofuran-2-yl)methoxy)-1-methoxypropan-2-yl)phosphonic acid]
O=P(O)(O)CS(=O)(=O)C[C@H]1O[C@@H](n2nnc3c(NCc4ccccc4Cl)cc(Cl)nc32)[C@H](O)[C@@H]1O [Example 27, (((((2S,3S,4R,5R)-5-(5-chloro-7-((2-chlorobenzyl)amino)-3H-[1,2,3]triazolo[4,5-b]pyridin-3-yl)-3,4-dihydroxytetrahydrofuran-2-yl)methyl)sulfonyl)methyl)phosphonic acid]
O=P(O)(O)C(CO)(COC1CCC1)OC[C@H]1O[C@@H](n2ncc3c(NC4CCCC4)nc(Cl)nc32)[C@H](O)[C@@H]1O (mixture of isomers) [Example 163, rac-(2-(((2R,3S,4R,5R)-5-(6-chloro-4-(cyclopentylamino)-1H-pyrazolo[3,4-d]pyrimidin-1-yl)-3,4-dihydroxytetrahydrofuran-2-yl)methoxy)-1-cyclobutoxy-3-hydroxypropan-2-yl)phosphonic acid]
CC(CO)(OC[C@H]1O[C@@H](n2ncc3c(N[C@H]4CCC45CCC5)nc(Cl)nc32)[C@H](O)[C@@H]1O)P(=O)(O)O (stereo partly drawn) [Example 136, (2-(((2R,3S,4R,5R)-5-(6-chloro-4-(((S)-spiro[3.3]heptan-1-yl)amino)-1H-pyrazolo[3,4-d]pyrimidin-1-yl)-3,4-dihydroxytetrahydrofuran-2-yl)methoxy)-1-hydroxypropan-2-yl)phosphonic acid]
COC[C@@](Cc1nn[nH]n1)(OC[C@H]1O[C@@H](n2ncc3c(NC4CCCC4)nc(Cl)nc32)[C@H](O)[C@@H]1O)P(=O)(O)O (racemic) [Example 212, rac-((R)-2-(((2S,3R,4S,5S)-5-(6-chloro-4-(cyclopentylamino)-1H-pyrazolo[3,4-d]pyrimidin-1-yl)-3,4-dihydroxytetrahydrofuran-2-yl)methoxy)-1-methoxy-3-(2H-tetrazol-5-yl)propan-2-yl)phosphonic acid]
CC#CC[C@](CO)(OC[C@H]1O[C@@H](n2ncc3c(NC4CCCC4)nc(Cl)nc32)[C@H](O)[C@@H]1O)P(=O)(O)O [Example 98, ((S)-2-(((2R,3S,4R,5R)-5-(6-chloro-4-(cyclopentylamino)-1H-pyrazolo[3,4-d]pyrimidin-1-yl)-3,4-dihydroxytetrahydrofuran-2-yl)methoxy)-1-hydroxyhex-4-yn-2-yl)phosphonic acid]
CS(=O)(=O)CC(CO)(OC[C@H]1O[C@@H](n2ncc3c(NC4CCCC4)nc(Cl)nc32)[C@H](O)[C@@H]1O)P(=O)(O)O (stereo partly drawn) [Example 107, (2-(((2R,3S,4R,5R)-5-(6-chloro-4-(cyclopentylamino)-1H-pyrazolo[3,4-d]pyrimidin-1-yl)-3,4-dihydroxytetrahydrofuran-2-yl)methoxy)-1-hydroxy-3-(methylsulfonyl)propan-2-yl)phosphonic acid]
O=P(O)(O)C(COCCO)OC[C@H]1O[C@@H](n2ncc3c(NC4CCCC4)nc(Cl)nc32)[C@H](O)[C@@H]1O (mixture of isomers) [Example 166, rac-(1-(((2R,3S,4R,5R)-5-(6-chloro-4-(cyclopentyalmino)-1H-pyrazolo[3,4-d]pyrimidin-1-yl)-3,4-dihydroxytetrahydrofuran-2-yl)methoxy)-2-(2-hydroxyethoxy)ethyl)phosphonic acid]
C[C@@](CO)(OC[C@H]1O[C@@H](n2ncc3c(N[C@@H]4CCc5ccc(F)cc54)nc(Cl)nc32)[C@H](O)[C@@H]1O)P(=O)(O)O [Example 99, ((R)-2-(((2R,3S,4R,5R)-5-(6-chloro-4-(((R)-6-fluoro-2,3-dihydro-1H-inden-1-yl)amino)-1H-pyrazolo[3,4-d]pyrimidin-1-yl)-3,4-dihydroxytetrahydrofuran-2-yl)methoxy)-1-hydroxypropan-2-yl)phosphonic acid]
COCCOCC(COCCO)(OC[C@H]1O[C@@H](n2ncc3c(NC4CCCC4)nc(Cl)nc32)[C@H](O)[C@@H]1O)P(=O)(O)O (mixture of isomers) [Example 177, rac-(2-(((2R,3S,4R,5R)-5-(6-chloro-4-(cyclopentylamino)-1H-pyrazolo[3,4-d]pyrimidin-1-yl)-3,4-dihydroxytetrahydrofuran-2-yl)methoxy)-1-(2-hydroxyethoxy)-3-(2-methoxyethoxy)propan-2-yl)phosphonic acid]
O=P(O)(O)C(CO)OC[C@H]1O[C@@H](n2ncc3c(NCC4CC4)nc(Cl)nc32)[C@H](O)[C@@H]1O (stereo partly drawn) [Example 30, (1-(((2R,3S,4R,5R)-5-(6-chloro-4-((cyclopropylmethyl)amino)-1H-pyrazolo[3,4-d]pyrimidin-1-yl)-3,4-dihydroxytetrahydrofuran-2-yl)methoxy)-2-hydroxyethyl)phosphonic acid]
CC(C)(O)COc1nc(NC2CCCC2)c2cnn([C@@H]3O[C@H](COC(C)(CO)P(=O)(O)O)[C@@H](O)[C@H]3O)c2n1 (stereo partly drawn) [Example 146, (2-(((2R,3S,4R,5R)-5-(4-(cyclopentylamino)-6-(2-hydroxy-2-methylpropoxy)-1H-pyrazolo[3,4-d]pyrimidin-1-yl)-3,4-dihydroxytetrahydrofuran-2-yl)methoxy)-1-hydroxypropan-2-yl)phosphonic acid]
O=P(O)(O)[C@](CO)(Cc1ncco1)OC[C@H]1O[C@@H](n2ncc3c(NC4CCCC4)nc(Cl)nc32)[C@H](O)[C@@H]1O [Example 92, ((S)-2-(((2R,3S,4R,5R)-5-(6-chloro-4-(cyclopentylamino)-1H-pyrazolo[3,4-d]pyrimidin-1-yl)-3,4-dihydroxytetrahydrofuran-2-yl)methoxy)-1-hydroxy-3-(oxazol-2-yl)propan-2-yl)phosphonic acid]
